According to patent US5025036A, “Catechol carboxylic acids” (Hoffmann-La Roche Inc., priority 1989, dated 1991):

Columns and labels:
[1] = tested on: myeloperoxidase accumulation (acetic acid-induced colitis); experiment: Acetic Acid-Induced Colitis in Rats, In Vivo; set-up: species or system male rats (Sprague-Dawley)
Description: The rat acetic acid-induced colitis bioassay has been described by J. E. Krawisz, et al. in Amer. J. Proc. Gastro. Col. Rec. Surg. 31: 11-18 (1980), and by P. Sharon and W. F. Stenson in Gastroenterolgy 88: 55-63 (1985) and 86: 453-460 (1984). Acetic acid-induced colitis is characterized by the movement of inflammatory cells into the colon, with the number of such cells in the mucosa being measured by the activity of myeloperoxidase, a marker enzyme for these cells. Positive desirable activity is indicated by a reduction in the high levels of myeloperoxidase caused by acetic acid. Male rats (Sprague-Dawley), weighing 150 to 300 g, were pretreated twice daily for two days with either the vehicle (water, or dimethylsulfoxide) or the test inhibitor compound suspended in water or dissolved in dimethylsulfoxide and orally administered. On the third day, the animals were dosed the same as on the previous two days, anesthetized with metofane, and 2 ml of 2.5% acetic acid was injected by syringe into the colonic lumen, followed immediately by 3 ml of air and a rinse consisting of 3 ml of phosphate-buffered saline (the acetic acid is present in the lumen for a sufficient period to cause inflammation without producing severe necrosis or irreversible damage). The animals were administered a second dose of the test compound in the same amount about 16 hours later. 24 hours after the acetic acid treatment, the animals were sacrificed, the colonic mucosa was surgically removed and homogenized in an aqueous buffer at pH 6 with a Tissumizer or similar device and myeloperoxidase was measured in the homogenate using o-phenylenediamine as a chromagen, as described by A. Voller, D. E. Bidwell and A. Bartlett in The Enzyme Linked Immunosorbent Assay (ELISA), Zoological Soc., London, 1979, pages 29-30. Control animals were pretreated with the vehicle and saline in place of acetic acid.

[2] = Rat In Vivo Model of Myocardial Ischemia (free radical generator infusion); set-up: species or system male spontaneously hypertensive rats; settings: for Rat Ischemia Model % Infarction: percent of left ventricle infarcted of the animals with an infarct
Description: In this preparation a free radical generating (FRG) system consisting of purine (2.3 mM), xanthine oxidase (0.02 U/ml) and iron loaded transferring (0.6 μM) complex is infused into the carotid artery near the ostium of the coronary artery in spontaneously hypertensive rats. Blood is withdrawn before and 24 hours after the FRG challenge for measuring the isoenzymes of lactic acid dehydrogenase (LDH1 :LDH2). An increase in LDH1 :LDH2 ratio reflects cell damage to the myocardium. The electrocardiogram is also taken before and 24 hours after the FRG infusion. At the end of the experiment the heart is removed, sliced in a breadloaf fashion, and stained with triphenyltetrazolium chloride to determine infarct size. A drug or vehicle is administered intravenously 10-30 minutes before the FRG challenge. A drug is considered active if there is no elevation of the LDH1 :LDH2 ratio, no ECG abnormalities and no histologic evidence of an infarction.
Male spontaneously hypertensive rats (280-320 g) from Taconic Farms, were lightly anesthetized with sodium pentobarbital (30-50 mg/kg, i.p.). […] A catheter of PE 50 tubing was inserted into the right common carotid artery to a position proximal to the ostia of the coronary arteries and used to sample blood and infuse the free radical generator (FRG) system. A second catheter of PE 10 tubing was inserted into the left jugular vein to administer drugs. The infusion system for the FRG consisted of a double syringe infusion pump, Sage Model 351, with one syringe containing xanthine oxidase (0.01 units/ml) in a HEPES (0.05M) buffer and the other syringe containing purine (2.3 mM) plus Fe^3+ loaded transferring (0.06 μM) in a HEPES (0.05M) buffer. The FRG infused separately mixes simultaneously near the ostia of the coronary arteries. This infusion was delivered at a rate of 0.03 ml/minute for a total infusion time of 10 minutes. The drugs were infused over a one minute period in a 0.9% saline vehicle.
Standard Lead II ECG was monitored continuously on a Hewlett-Packard 7758A recorder prior to treatment, throughout the FRG infusion and 10 minutes post infusion. Catheters were removed and animals were allowed to recover and fed standard rat chow and water ad libitum. 24 hours following the FRG infusion, animals were reanesthetized with sodium pentobarbital (30-50 mg/kg, i.p.) and an ECG was obtained. Blood samples were taken prior to and after the FRG infusion and at the conclusion of the experiment. These samples were centrifuged and assayed for total lactate dehydrogenase (LDH) and lactate dehydrogenase isoenzymes (LDH1 :LDH2), using electrophoresis.
The animals were sacrificed, the hearts rapidly excised, and washed free of blood and sectioned. The left ventricle was weighed and stored in a Revco® freezer at -70° C. The left ventricle was sliced into 2 mm-thick rings, incubated in a 1% triphenyltetrazolium chloride solution for 20 minutes, and then fixed in a 10% formalin solution. Infarcted areas were measured and quantitated as a percentage of the total left ventricular volume.

Carrageenan pleurisy = experiment: Carrageenan Pleurisy Test (In Vivo); set-up: species or system male Lewis rats; settings: Rattus norvegicus, po, read-out: Rat Carrageenan Pleurisy % Inhib. of Exudate Volume; for inhibition in vivo at 100 mg/kg: at 100 mg/kg p.o
Description: The animals utilized in these studies were male Lewis rats (Charles River Breeding Laboratories) weighing between 230-250 g. […] At 5 or 24 hours after CG injection, the rats were killed by decapitation, exsanguinated, and the pleural cavity exposed by cutting the ribs on both sides of the sternum. The exudate fluid was removed from the pleural cavity with disposable plastic pipettes and its volume quantitated. The pleural cavity was then washed once with phosphate buffered saline containing fetal bovine serum (1:1) and the washings combined with the exudate. The total number of cells in the pleural cavity was quantitated using a Coulter Counter (Model ZM) adjusted to exclude any contaminating RBC. (Published in "Plant Flavonoids in Biology & Medicine: Biochemical, Pharmacological and Structure-Activity Relationships" p. 231-242 (1986) Alan R. Liss, Inc.)

ear edema = experiment: Mouse Ear Edema Test (In Vivo), arachidonic acid; set-up: species or system CD-1 male mice; settings: topical, 1 h, at 1 mg topically
Description: Invest. Dermatol. 80:48 (1983) and Hames, Opas and Bonney, "Arachidonic Acid Metabolites in Mouse Ear Edema" Advances in Inflammation Research, 11:57 (1986). […] CD-1 male mice weighing 15 to 25 g were employed, and they were designated as follows: (1) Control Group, in which no arachidonic acid or test compound was to be applied, (2) Arachidonic Acid-Treated Group, in which no test compound was to be applied, and (3) Treated Group, in which the test compound was to be applied first, followed by the application of arachidonic acid. In the case of the Group (3) animals, the test compound, dissolved in acetone, was applied to the dorsal surface of the right ear of the mouse with a 25-microliter pipettor, with the dose of the test compound being varied. After 0.5 hours in some cases and 4 hours in others, the arachidonic acid was topically applied in the same manner as above to the pretreated ear areas. In each case of arachidonic acid application, an amount of 0.5 mg dissolved in 25 microliters of acetone was used. After 1 hour, the mice were sacrificed by carbon dioxide inhalation. A 6 mm-diameter standard biopsy punch was used to obtain a uniform tissue sample from the ear of each mouse so treated, and the tissue samples were weighed to the nearest 0.1 mg. The percent inhibition of ear edema formation was calculated as follows: [formula]

| SMILES | Rat Acetic Acid Colitis Model % Inhib. of Myeloperoxidase Accumulation ([1]; 10 mg/kg p.o) [%] | Rat Acetic Acid Colitis Model % Inhib. of Myeloperoxidase Accumulation ([1]; 30 mg/kg p.o) [%] | Rat Ischemia Model Infarcts/Total ([2]; 10 mg/kg iv) | Rat Ischemia Model % Infarction ([2]; 10 mg/kg iv) [%] | inhibition in vivo at 100 mg/kg (Carrageenan pleurisy) [%] | inhibition in vivo at 1 mg (ear edema) [%] | Rat Acetic Acid Colitis Model % Inhib. of Myeloperoxidase Accumulation ([1]; 1 mg/kg p.o) [%] | Rat Acetic Acid Colitis Model % Inhib. of Myeloperoxidase Accumulation ([1]; 3 mg/kg p.o) [%] | Rat Ischemia Model Infarcts/Total ([2]; 5 mg/kg iv) | Rat Ischemia Model % Infarction ([2]; 5 mg/kg iv) [%] | inhibition in vivo at 50 mg/kg (Carrageenan pleurisy; at 50 mg/kg p.o) [%] |
| --- | --- | --- | --- | --- | --- | --- | --- | --- | --- | --- | --- |
| CCCc1c(OCCCCc2cccc(O)c2O)ccc(C(C)=O)c1O [1-[2-Hydroxy-4-[4-(2,3-dihydroxyphenyl)butoxy]-3-propylphenyl]ethanone] | 46 ± 7 | 89 ± 11 | 1/5 | 12 | 53 |  |  |  |  |  |  |
| CCCc1c(OCCCCCCc2ccc(C(C)C)c(O)c2O)ccc(C(C)=O)c1O [1-[2-hydroxy-4 [6-[2,3 dihydroxy-4-(1-methylethyl)phenyl]hexyloxy]-3 propylphenyl]ethanone] | 65 ± 10 |  | 2/5 | 11 |  |  |  |  |  |  |  |
| CCCc1c(OCCCCCCc2cccc(O)c2O)ccc(C(C)=O)c1O [1-[2-hydroxy-4-[6-(2,3-dihydroxyphenyl)hexyloxy]-3-propylphenyl]ethanone] |  |  | 4/4 | 24 | 51 | 21 |  |  |  |  |  |
| CCCc1c(OCCCc2ccc(O)c(O)c2)ccc(C(=O)O)c1O [4-[3-(3,4-Dihydroxyphenyl)propoxy]-2-hydroxy-3-propylbenzoic acid] |  | 39 ± 5 |  |  | 55 | 32 |  |  |  |  |  |
| CCCc1c(OCCCCc2cccc(O)c2O)ccc(C(=O)O)c1O [4-[4-(2,3-dihydroxyphenyl)butoxy]-2-hydroxy-3-propylbenzoic acid] | 73 ± 10 | 71 ± 11 | 2/5 | 8 | 76 | 17 |  |  |  |  |  |
| CCCc1c(OCCCCCCc2cccc(O)c2O)ccc(C(=O)OCC)c1O [4-[6-(2,3-Dihydroxyphenyl)hexyloxy]-2-hydroxy-3-propylbenzoic acid ethyl ester] |  |  |  |  | 44 | 64 | 40 ± 9 | 67 ± 11 |  |  |  |
| CCCc1c(OCCCCCCc2ccc(O)c(O)c2)ccc(C(=O)O)c1O [4-[6-(3,4-dihydroxyphenyl)hexyloxy]-2-hydroxy-3-propylbenzoic acid] |  |  |  |  | 0 | 21 |  |  | 1/5 | 11 |  |
| CCCc1c(OCCCCCCCc2cccc(O)c2O)ccc(C(=O)O)c1O [4-[7-(2,3-dihydroxyphenyl)heptyloxy]-2-hydroxy-3-propylbenzoic acid] |  |  | 3/5 | 18 | 57 | 57 |  |  |  |  |  |
| CCCc1c(OCCCCCCCCCCc2cccc(O)c2O)ccc(C(=O)O)c1O [4-[10-(2,3-dihydroxyphenyl)decyloxy]-2-hydroxy-3-propylbenzoic acid] |  |  | 3/3 | 13 | 61 | 49 |  |  |  |  |  |
| CCCc1c(O)c(C(=O)O)cc(Cl)c1OCCCCCCc1cccc(O)c1O [5-Chloro-2-hydroxy-4-[6-(2,3-dihydroxyphenyl]hexyloxy]-3-propylbenzoic acid] |  | 44 ± 6 |  |  |  | 51 |  |  |  |  | 45 |
